In one assay the target is T1, Hexokinase-1 (Homo sapiens, UniProt P19367).
T1 sequence (P19367 whole entry): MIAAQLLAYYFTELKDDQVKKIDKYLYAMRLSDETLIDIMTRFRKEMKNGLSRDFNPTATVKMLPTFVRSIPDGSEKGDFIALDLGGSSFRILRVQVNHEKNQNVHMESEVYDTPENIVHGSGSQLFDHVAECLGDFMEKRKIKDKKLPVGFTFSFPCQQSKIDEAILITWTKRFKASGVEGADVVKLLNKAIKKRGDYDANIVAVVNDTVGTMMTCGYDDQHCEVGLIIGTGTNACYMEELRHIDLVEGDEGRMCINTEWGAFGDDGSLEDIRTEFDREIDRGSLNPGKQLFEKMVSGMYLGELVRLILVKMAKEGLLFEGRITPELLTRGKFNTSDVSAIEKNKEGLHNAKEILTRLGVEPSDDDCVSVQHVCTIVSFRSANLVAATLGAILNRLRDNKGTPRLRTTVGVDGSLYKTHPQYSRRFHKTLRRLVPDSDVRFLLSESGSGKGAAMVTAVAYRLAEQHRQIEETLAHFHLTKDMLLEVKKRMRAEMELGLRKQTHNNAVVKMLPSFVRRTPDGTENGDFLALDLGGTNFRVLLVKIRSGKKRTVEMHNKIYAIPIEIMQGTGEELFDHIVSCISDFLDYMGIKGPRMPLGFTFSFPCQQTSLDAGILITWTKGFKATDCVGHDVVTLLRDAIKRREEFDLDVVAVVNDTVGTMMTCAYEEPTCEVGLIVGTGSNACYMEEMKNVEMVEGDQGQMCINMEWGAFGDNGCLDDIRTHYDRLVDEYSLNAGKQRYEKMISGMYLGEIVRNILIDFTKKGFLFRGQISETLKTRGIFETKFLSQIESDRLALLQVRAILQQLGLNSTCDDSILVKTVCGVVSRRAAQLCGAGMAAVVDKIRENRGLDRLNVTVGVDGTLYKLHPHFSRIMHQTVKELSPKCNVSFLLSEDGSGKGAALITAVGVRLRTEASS
The assay is described as follows: SAR analysis of small molecule inhibitors of hexokinase domain containing I (HKDC1) in the hexokinase 1 selectivity assay. [Related pubchem assays (depositor defined):AID493160, AID493190]. It is filed as functional.

In another assay the target is T2, Hexokinase HKDC1 (Homo sapiens, UniProt Q2TB90).
T2 sequence (Q2TB90 whole entry): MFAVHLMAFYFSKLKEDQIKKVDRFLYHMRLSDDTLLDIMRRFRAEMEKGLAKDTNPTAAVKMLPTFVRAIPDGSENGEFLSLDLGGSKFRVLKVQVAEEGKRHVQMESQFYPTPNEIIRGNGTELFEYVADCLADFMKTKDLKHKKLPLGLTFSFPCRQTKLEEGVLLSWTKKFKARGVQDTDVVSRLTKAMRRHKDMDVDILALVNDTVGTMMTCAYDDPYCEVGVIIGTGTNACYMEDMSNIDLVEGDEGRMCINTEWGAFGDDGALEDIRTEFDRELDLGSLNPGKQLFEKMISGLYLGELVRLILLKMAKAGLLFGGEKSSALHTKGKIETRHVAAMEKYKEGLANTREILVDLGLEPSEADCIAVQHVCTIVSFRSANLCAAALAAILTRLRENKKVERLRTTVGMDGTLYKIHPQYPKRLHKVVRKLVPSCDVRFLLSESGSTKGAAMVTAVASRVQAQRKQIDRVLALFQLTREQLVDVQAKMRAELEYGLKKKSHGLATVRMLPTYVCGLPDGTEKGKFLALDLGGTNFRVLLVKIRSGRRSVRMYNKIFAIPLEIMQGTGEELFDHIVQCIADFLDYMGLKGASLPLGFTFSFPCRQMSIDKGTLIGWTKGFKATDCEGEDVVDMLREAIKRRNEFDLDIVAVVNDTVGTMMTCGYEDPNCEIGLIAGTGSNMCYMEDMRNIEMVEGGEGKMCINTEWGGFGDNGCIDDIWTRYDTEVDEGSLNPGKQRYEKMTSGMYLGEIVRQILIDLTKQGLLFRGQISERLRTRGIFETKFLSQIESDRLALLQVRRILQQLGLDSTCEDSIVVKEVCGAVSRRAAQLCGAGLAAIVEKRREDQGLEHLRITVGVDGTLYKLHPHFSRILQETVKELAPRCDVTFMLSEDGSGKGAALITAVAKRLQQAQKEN
The assay is described as follows: SAR analysis of small molecule inhibitors of hexokinase domain containing I (HKDC1). [Related pubchem assays (depositor defined):AID493160, AID493190]. Type of assay: functional.

Assay [1] can be described thus: BHK-21 cell cytotoxicity, cytotoxicity control for flavivirus guanylyltransferase probe project, secondary screen (AID 624078). It is filed as functional.
Assay [2] deals with ATP-dependent translocase ABCB1 (Homo sapiens, UniProt P08183). The assay is described as follows: ABCB1 efflux inhibition concentration-response, dose response, Jurkat-DNR cells, JC-1, flow cytometry, follow-up (AID 489002). It is filed as functional. A general note: Flow cytometry measures light scatter and fluorescence of single cells or particles in a stream.
Sequence of ATP-dependent translocase ABCB1 (P08183 whole entry): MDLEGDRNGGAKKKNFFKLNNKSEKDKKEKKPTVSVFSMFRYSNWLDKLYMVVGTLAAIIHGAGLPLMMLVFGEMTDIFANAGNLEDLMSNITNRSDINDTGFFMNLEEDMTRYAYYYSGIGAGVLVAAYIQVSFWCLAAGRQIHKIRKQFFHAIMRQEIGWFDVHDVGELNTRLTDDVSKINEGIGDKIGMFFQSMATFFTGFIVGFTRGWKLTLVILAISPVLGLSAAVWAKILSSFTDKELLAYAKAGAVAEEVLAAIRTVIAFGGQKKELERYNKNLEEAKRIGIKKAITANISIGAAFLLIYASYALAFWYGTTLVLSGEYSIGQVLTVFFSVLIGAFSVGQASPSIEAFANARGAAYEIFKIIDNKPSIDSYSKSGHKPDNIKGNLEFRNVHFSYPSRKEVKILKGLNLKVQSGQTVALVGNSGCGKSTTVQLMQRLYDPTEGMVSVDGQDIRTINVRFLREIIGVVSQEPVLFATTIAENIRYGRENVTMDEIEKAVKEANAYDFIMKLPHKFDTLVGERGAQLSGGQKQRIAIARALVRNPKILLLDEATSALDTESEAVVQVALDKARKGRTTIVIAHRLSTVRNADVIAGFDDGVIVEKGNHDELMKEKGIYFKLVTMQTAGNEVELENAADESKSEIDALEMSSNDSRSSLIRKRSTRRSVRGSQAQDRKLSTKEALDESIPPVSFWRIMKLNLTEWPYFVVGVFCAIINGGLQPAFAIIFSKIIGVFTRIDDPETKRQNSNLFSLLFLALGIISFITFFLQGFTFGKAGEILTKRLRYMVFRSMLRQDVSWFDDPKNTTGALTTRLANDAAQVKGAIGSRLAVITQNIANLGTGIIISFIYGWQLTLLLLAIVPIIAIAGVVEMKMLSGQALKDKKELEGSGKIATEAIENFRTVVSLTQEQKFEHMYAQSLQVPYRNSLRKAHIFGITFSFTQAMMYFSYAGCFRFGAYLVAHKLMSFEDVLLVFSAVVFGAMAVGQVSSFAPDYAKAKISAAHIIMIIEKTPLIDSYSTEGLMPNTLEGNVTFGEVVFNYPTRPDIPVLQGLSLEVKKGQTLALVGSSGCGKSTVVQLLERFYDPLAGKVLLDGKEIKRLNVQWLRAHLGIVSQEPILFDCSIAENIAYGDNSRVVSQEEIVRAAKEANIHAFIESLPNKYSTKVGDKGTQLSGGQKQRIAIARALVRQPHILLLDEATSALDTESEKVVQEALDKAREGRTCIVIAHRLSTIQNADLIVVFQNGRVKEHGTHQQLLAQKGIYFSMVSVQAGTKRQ
The next assay addresses Kallikrein-7 (Homo sapiens, UniProt P49862). The assay is described as follows: Fluorescence Intensity-based biochemical primary high throughput dose response assay to identify activators of kallikrein-7 (K7) zymogen.
Assay [3] in a line: intracellular Trypanosoma cruzi inhibitors in host cells – cell-based, plate reader, cherry-pick samples, set 3, dose response (AID 651818).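 Note: compounds incubated with infected cells for about four days.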 It is filed as functional.
The target in assay [4] is Endoplasmic reticulum aminopeptidase 2 (Homo sapiens, UniProt Q6P179). The assay is described as follows: ERAP2 aminopeptidase inhibitors, dose response, selectivity assay for selective ERAP1 modulator project, biochemical, fluorescence plate reader, cherry-picked, set 2 (AID 743320).
Sequence of Endoplasmic reticulum aminopeptidase 2 (Q6P179 whole entry): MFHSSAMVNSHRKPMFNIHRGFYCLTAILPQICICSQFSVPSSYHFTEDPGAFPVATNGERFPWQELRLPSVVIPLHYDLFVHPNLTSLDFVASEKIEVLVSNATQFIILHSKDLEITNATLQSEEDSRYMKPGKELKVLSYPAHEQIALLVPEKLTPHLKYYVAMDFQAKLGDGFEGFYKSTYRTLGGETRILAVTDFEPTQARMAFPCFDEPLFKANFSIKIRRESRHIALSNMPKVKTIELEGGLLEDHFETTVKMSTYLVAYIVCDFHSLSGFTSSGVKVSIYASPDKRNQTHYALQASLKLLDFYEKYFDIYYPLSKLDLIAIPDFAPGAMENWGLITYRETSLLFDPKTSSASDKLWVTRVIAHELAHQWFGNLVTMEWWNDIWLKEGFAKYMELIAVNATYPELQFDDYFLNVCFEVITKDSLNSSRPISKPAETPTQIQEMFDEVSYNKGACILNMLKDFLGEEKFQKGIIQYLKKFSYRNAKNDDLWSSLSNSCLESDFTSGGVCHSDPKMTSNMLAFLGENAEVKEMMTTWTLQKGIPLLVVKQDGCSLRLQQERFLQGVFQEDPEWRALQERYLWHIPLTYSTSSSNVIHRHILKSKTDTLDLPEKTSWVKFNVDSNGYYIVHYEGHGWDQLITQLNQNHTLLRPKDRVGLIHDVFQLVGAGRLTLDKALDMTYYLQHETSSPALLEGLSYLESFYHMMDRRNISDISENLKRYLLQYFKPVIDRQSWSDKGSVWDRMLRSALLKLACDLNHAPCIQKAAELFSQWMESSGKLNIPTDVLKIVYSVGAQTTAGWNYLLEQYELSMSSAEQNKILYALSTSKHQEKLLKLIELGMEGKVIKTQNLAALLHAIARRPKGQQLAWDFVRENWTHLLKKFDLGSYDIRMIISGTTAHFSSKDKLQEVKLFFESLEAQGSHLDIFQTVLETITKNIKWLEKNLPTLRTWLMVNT
Assay [5] in a line: IRAP inhibitors, dose response, selectivity assay for ERAP1 modulator project, biochemical, Leu-AMC fluorescence, cherry-picked samples, set 2 (AID 743340).
In assay [6] the target is E3 ubiquitin-protein ligase Mdm2 (Homo sapiens, UniProt Q00987). In words: enhancers of MDM2-luciferase reporter signal, concentration-effect titration, project on inhibitors of MDM2 ubiquitin ligase, cellular assay, luminescent readout, 384-well plate format (AID 1394).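 Note: MDM2 E3 inhibitors raise luminescence so EC50 is for signal enhancement.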 Type of assay: functional. (In a reporter assay the amount or activity of a reporter protein is the signal.)
Sequence of E3 ubiquitin-protein ligase Mdm2 (Q00987 whole entry): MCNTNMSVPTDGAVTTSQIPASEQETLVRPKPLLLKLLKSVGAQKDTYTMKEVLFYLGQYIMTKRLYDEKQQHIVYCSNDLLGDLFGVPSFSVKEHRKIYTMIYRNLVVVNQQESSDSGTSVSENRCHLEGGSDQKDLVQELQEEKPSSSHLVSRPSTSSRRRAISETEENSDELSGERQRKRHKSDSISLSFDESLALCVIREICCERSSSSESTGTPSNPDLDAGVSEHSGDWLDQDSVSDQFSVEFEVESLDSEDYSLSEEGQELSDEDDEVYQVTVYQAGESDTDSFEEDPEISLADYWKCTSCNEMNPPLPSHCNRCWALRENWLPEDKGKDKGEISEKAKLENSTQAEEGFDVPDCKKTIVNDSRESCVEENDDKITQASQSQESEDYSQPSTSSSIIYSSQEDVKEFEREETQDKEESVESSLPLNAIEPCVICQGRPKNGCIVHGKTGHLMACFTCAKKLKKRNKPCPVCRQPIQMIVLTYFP

Assay [7] can be described thus: growth suppression of PTEN-null colon cells, dose response, cell-based, HCT116 PTEN knockout (AID 1047).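 Note: HCT116 colon tumor cells with PTEN knocked out; cells exposed to compound for 60 hours before readout; potency for loss of cell viability measured by luminescence.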 Type of assay: functional.
Assay [8] is described as follows: growth suppression of beta-catenin-knockout colon cells, dose response, cell-based, HCT116, human colon tumor (AID 1045).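 Note: HCT116 colon tumor cells with beta catenin knocked out; cells exposed to compound for 60 hours.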 It is filed as functional.
Assay [9] is described as follows: Luminescence Cell-Based Dose Retest to Confirm Inhibitors of Cancer Stem Cells. [Related pubchem assays (depositor defined):AID2717, AID2721]. Type of assay: functional. The note with it: Homo sapiens.
Assay [10] deals with T3, Microphthalmia-associated transcription factor (Homo sapiens, UniProt O75030).
T3 sequence (O75030 whole entry): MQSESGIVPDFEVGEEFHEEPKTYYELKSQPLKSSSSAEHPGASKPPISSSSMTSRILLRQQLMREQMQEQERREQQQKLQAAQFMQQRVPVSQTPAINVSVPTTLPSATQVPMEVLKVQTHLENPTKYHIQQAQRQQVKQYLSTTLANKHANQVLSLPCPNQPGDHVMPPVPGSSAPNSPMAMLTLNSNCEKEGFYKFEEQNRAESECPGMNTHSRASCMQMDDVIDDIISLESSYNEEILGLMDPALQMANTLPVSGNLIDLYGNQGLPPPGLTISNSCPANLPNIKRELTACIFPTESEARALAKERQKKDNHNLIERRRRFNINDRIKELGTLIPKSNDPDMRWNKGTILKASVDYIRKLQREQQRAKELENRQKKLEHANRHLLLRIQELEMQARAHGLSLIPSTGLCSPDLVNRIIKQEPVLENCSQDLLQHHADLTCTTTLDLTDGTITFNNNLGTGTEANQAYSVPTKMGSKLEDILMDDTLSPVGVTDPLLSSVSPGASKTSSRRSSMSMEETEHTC
The assay is described as follows: TRPM1 promoter luciferase signal decrease, dose response, MITF inhibitor project, cell-based, SK-MEL-5, cherry-picked, set 3 (AID 493073).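 Note: SK-MEL-5 melanoma cells with luciferase driven by the MITF target TRPM1 promoter.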 Type of assay: functional.

A short description of assay [11]: Fluorescence-based cell-based high throughput dose response assay for inhibitors of the interaction of nucleotide-binding oligomerization domain containing 2 (NOD2) and the receptor-interacting serine-threonine kinase 2 (RIPK2). Type of assay: functional. The note with it: Homo sapiens.
The nature of assay [12]: inhibitors of PGC1a acetylation in cells, dose response, cell-based, cherry-picked samples (AID 720514).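 Note: potency may reflect raised or lowered acetylation signal.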 It is filed as functional.
Assay [13] can be described thus: Late-stage results from the probe development effort to identify antagonists of arginine vasopressin receptor 1a (AVPR1a): fluorescence-based cell-based dose response AVPR1a inhibition assay. It is filed as functional.
The target in the next assay is Vasopressin V1b receptor (Homo sapiens, UniProt P47901). In words: Late-stage results from the probe development effort to identify antagonists of arginine vasopressin receptor 1a (AVPR1a): fluorescence-based cell-based dose response AVPR1b inhibition counterscreen assay. Type of assay: functional. On the technique in general: The purpose of a counterscreen is to sort out artefacts and off-target activity.
Sequence of Vasopressin V1b receptor (P47901 whole entry): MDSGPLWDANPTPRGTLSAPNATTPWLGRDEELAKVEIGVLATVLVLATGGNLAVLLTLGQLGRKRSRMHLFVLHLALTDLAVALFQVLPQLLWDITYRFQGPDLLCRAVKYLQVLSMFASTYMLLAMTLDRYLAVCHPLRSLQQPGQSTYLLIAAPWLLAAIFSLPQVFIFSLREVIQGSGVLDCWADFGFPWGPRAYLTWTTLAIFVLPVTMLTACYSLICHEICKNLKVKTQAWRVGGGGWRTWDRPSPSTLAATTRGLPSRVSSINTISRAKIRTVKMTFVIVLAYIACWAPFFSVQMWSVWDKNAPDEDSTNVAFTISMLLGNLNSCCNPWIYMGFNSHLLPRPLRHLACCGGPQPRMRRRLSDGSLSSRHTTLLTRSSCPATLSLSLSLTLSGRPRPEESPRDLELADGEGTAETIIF

Another assay deals with Vasopressin V2 receptor (Homo sapiens, UniProt P30518). The assay is described as follows: Late-stage results from the probe development effort to identify antagonists of arginine vasopressin receptor 1a (AVPR1a): fluorescence-based cell-based dose response AVPR2 inhibition counterscreen assay. Type of assay: functional.
Sequence of Vasopressin V2 receptor (P30518 whole entry): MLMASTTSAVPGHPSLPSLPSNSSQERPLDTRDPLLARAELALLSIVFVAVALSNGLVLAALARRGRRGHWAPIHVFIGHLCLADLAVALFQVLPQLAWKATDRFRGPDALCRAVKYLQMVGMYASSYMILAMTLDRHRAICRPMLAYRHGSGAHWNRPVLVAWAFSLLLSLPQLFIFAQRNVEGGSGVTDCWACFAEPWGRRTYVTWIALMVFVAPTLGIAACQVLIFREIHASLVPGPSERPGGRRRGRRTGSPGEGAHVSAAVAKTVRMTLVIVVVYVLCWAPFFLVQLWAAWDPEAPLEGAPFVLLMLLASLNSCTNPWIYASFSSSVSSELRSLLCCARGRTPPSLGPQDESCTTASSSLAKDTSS
Assay [14] can be described thus: Late-stage results from the probe development effort to identify antagonists of arginine vasopressin receptor 1a (AVPR1a): fluorescence-based cell-based dose response OXTR inhibition counterscreen assay. It is filed as functional.

Activity calls are given as the source filed them. Where only a bound is given, the exact number is not on record here.

Sequence of Kallikrein-7 (P49862 whole entry): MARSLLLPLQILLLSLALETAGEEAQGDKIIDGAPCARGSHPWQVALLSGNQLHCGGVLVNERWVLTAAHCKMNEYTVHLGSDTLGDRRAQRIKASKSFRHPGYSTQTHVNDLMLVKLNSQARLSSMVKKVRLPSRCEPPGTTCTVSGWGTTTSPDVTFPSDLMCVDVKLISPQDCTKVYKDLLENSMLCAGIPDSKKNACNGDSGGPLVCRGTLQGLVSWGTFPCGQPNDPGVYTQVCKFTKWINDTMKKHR

As usually defined, the IC50 is the concentration that gives 50% inhibition. The CC50 is the concentration giving 50% cytotoxicity. `Cc1ccc(S(=O)(=O)Nc2cc(SCC(=O)O)c(O)c3ccccc23)cc1`: the IC50 on Hexokinase-1 is 50.6 µM (inactive); at Hexokinase HKDC1 it was 5.44 µM (active). In assay [1], the 50% cytotoxic concentration (CC50) was 9.31 µM (active).

For orientation: EC50 means the concentration that produces a half-maximal response. In the case of `CN(CCN(C)c1cc(-c2ccco2)nc2cc(-c3ccccc3)nn12)C(=O)c1ccoc1`, in assay [2], the EC50 was found to be 0.0001485 µM.

`CCNC(=O)/C(C#N)=C/c1c(N2CCN(c3ccccc3)CC2)nc2ccccn2c1=O`: the EC50 at Kallikrein-7 was 34.8 µM (inactive).

As usually defined, the AC50 is the concentration at which the activity in the assay is half-maximal. Regarding `C[C@H](CO)N1C[C@H](C)[C@@H](CN(C)CC2CC2)Oc2c(NC(=O)Nc3ccc(C(F)(F)F)cc3)cccc2C1=O`, the values for the AC50 in assay [3], in [4] and in [5] were 1.87 µM (active), > 22 µM (inactive) and 16.9 µM (active), respectively.

In the case of `O=C(Cn1ncc(Cl)c(Cl)c1=O)NCC1CCCCC1`, the concentration for a half-maximal effect (EC50) in assay [6] was 1.89 µM (active); in [7] it was 2.58 µM (active); in [8] it was 1.44 µM (active). Further, the AC50 is 2.83 µM (active) in assay [9], 7.39 µM (active) in assay [10] and 3.97 µM (active) in assay [12]. In assay [11], the IC50 was 3.98 µM (active).

In the case of `O=C(C1CCN(c2ccccn2)CC1)N(CC1CC1)c1ccc(Cl)cc1`, the IC50 in [13] is 0.0288 µM (active); on Vasopressin V1b receptor, 18.9 µM (inactive); on Vasopressin V2 receptor, 28.3 µM (inactive); in assay [14], 9.6 µM (active).

These data come from ChEMBL document CHEMBL1201862, “PubChem BioAssay data set” (2004).
